According to patent US7820624B2, “Peptide ligands” (ICH Productions Limited, priority 2003, dated 2010):

Columns and labels:
[1] = Titration of phage clone binding to blocked plastic (control)
Procedure: The dendritic cells were spun down at 2000 rpm, for 5 min at 4° C., and resuspended in the phage solution, allowing the phage to bind for 1 hour on ice with occasional mixing. The cells were then washed in PBS-Tween 20 (0.05%) three times before eluting phage with 166 μl TBS pH5.5. for 10 min on ice. The eluate was neutralised with […] Tris-HCl pH 8, the cells were spun down, and the supernatant removed to be stored as eluate. The cell pellet was resuspended in 200 μl of cell lysis buffer (30 mM Tris-HCl, 1 mM EDTA pH 8.0) for 1 hour on ice, with shaking. The cell debris was removed by spinning at 5000 rpm for 5 min and the supernatant recovered. The phage in the eluate and the cell lysate were titred by measuring plaque forming units (pfu) in E. coli ER2738 as described in the NEB C7C technical bulletin.
The titration of phage clone binding was carried out using human and mouse dendritic cells, with binding to plastic as a control. The human cells were obtained from donors as stated below.

HMEC-1 cells = assay: LID transfection, luciferase reporter assay, HMEC-1; assay type: cell-based, human; settings: LID with lipofectin
Procedure: Transfection complexes comprising lipid, peptide and DNA were prepared. The lipid component was lipofectin (Invitrogen Ltd, Paisley, UK), the peptide component was a peptide A to F, 6 or 6J derivative, as described above, and the DNA was the plasmid pCILuc (Promega UK Ltd, Southampton). In the transfection complex, peptide to DNA charge ratios (+/−) were used at 3:1, 5:1 and 7:1. The lipid component was maintained at a constant proportion, by weight, relative to DNA of 0.75:1. Prior to making transfection complexes the lipid component was diluted to a concentration of 15 μg or 30 μg per ml, the peptide was prepared at 0.1 mg/ml and the DNA was at 40 μg per ml. All dilutions were performed with OptiMEM reduced serum tissue culture medium (Life Technologies). Transfection complexes were made by mixing of components in the order 1) lipid then 2) peptide and finally 3) DNA, then diluted with OptiMEM to a concentration relative to the DNA component of 0.25 μg DNA per […]
For transfection of these types of cell i.e. HMEC, HAEo-, N2a and HepG2, 1×10^4 cells were seeded overnight in 96 well plate. 200 μl of the suspension of the transfection complex prepared according to (b) above was added to each well. The suspension was applied to cells within 5 minutes of preparation. […]

HepG2 cells = assay: Adenoviral transduction of HepG2 cells; assay type: cell-based, human; settings: 10,000 particles per cell in OptiMEM; listed as peptide A
Procedure: (§1) Day 6 dendritic cells (see Example 1(v) above), or mouse bone marrow derived dendritic cells or mouse Sca1+ve stem cells, see (i) and (ii) above, were plated at 5×10^4 cells per well in a 48 well plate in 500 μl complete medium and allowed to settle for 3 hours at 37° C. Transductions were carried out in complete media, with virus being added at 100,000 viral particles/cell for 24 hours. Cells were harvested by scraping, spun down at 650 g (2000 rpm) for 5 min, resuspended in 300 μl PBS, and kept on ice before analysis. Viral transduction as determined by percentage of GFP positive cells was measured by FACS analysis. To measure percentage viability, 10 μl of 7-amino-actinomycin D (7AAD; Sigma, Poole, Dorset) was added immediately prior to analysis. Viral transduction of macrophages was carried out at 10,000 particles/cell in medium containing 2.5% FCS. […] Cells were then washed twice in PBS, trypsinised, triplicate wells pooled, spun down at 350×g for 5 min and resuspended in 300 μl PBS before analysis by flow cytometry where cell viability was to be measured, 10 μl 7AAD was added just prior to analysis.
(§2) For transduction of these other cell types, cells were seeded overnight at 5×10^4 cells per well in 24 well plates in the appropriate media. […] Where cell viability was to be measured, 10 μl 7-amino-actinomycin D (7AAD; Sigma, Poole, Dorset) was added just prior to analysis. […]

[2] = tested on: mouse Sca1-positive stem cells; assay: Adenoviral transduction of mouse Sca1+ve stem cells; assay type: cell-based
Procedure: Mouse bone marrow cells were isolated as above and Sca1+ve cells were isolated using MACs Sca1 microbeads (Miltenyi Biotec, Bisley, U.K.). These cells were plated at 7×10^4 cells/500 μl in RPMI with Glutamax-1 containing 30% FCS and penicillin/streptomycin and the following cytokines murine SCF (50 ng/ml; Preprotech, London, UK), IL-6 (20 ng/ml; Preprotech, London, UK) and Flt3-L (10 ng/ml) (R&D Systems, Oxford, U. K.).
as §1, with “analysis.” for “analysis. To measure percentage viability, 10 μl of 7-amino-actinomycin D (7AAD; Sigma, Poole, Dorset) was added immediately prior to analysis. Viral transduction of macrophages was carried out at 10,000 particles/cell in medium containing 2.5% FCS.”

Neuro-2A cells = assay: Adenoviral transduction of Neuro-2A cells; assay type: cell-based, mouse; settings: 10,000 particles per cell in OptiMEM
Procedure: as §1, §2

[3] = tested on: day 4 immature dendritic cells; assay: Phenotyping of LID-transfected dendritic cells (HLA-DR, CD86); assay type: cell-based, human; settings: LID with lipofectin, peptide:DNA 7:1
Procedure: Immature day 4 dendritic cells were transfected with LID complex with peptide A at a charge ratio 7:1 to the DNA (plasmid pEGFP-N1), with lipofectin added at a weight ratio of 0.75 to the DNA for 4 hours in RPMI before incubating in complete medium with cytokines for 24 hours. As a control, dendritic cells were incubated in complete medium for 24 hours (immature Dendritic cells) Cells were then harvested by scraping and stained for the presence of maturation markers as follows: a minimum of 5×10^4 cells in a volume of less than 2 ml medium were added to the recommended amount of antibody and incubated for 20 min on ice. 2 ml of ice-cold PBS was added before centrifugation at 300×g for 5 min at 4° C. The supernatant was flicked off and the pellet resuspended in 300 μl ice cold 1% paraformaldehyde-PBS. Cells from each sample were stained with antibodies to HLA-DR, and CD86 and isotype matched control antibodies. Cells were analysed by flow cytometry using a Epics XL (Beckman Coulter, High Wycombe, UK.) and the EXPO32 analysis software (Beckman Coulter).

Row | Substance | Phage titre (pfu), plastic [1] [pfu ×10^3] | Transfection efficiency (luciferase activity per mg protein) relative to peptide 6 (HMEC-1 cells) | Transduction, % cells transduced (HepG2 cells) [%] | Transduction efficiency [2] [%] | Transduction, % GFP-positive cells (Neuro-2A cells) [%] | HLA-DR and CD86 on transfected cells [3]
1 | APSNSTA (Synthetic peptide binding to dendritic cells) | 480 | one and a half times that of peptide 6 | – | – | – | –
2 | SHVKLNS (Synthetic peptide binding to dendritic cells) [listing 1 of 2 here] | – | – | 88.5 | 5.4 | 63.5 | –
3 | SHVKLNS (Synthetic peptide binding to dendritic cells) [listing 2 of 2 here] | 720 | approximately equal to that seen with peptide 6 | – | – | – | upregulated CD86 and HLA-DR
